These results are taken from US12202829B2, “Heterocyclic compound” (FIMECS, Inc., priority 2018, dated 2025).

The target of assay [1] is T1, human XIAP_BIR3 domain purified protein (Homo sapiens, UniProt P98170).
T1 construct: purchased R & D
As to the kind of experiment: XIAP binding inhibitory activity, HTRF method with b-Smac ligand. Particulars: test compound 3 μM; first symbol of the cell; read-out: XIAP binding inhibition rate when the concentration of the test compound is 3 μM. Put shortly:
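HTRF competition: human XIAP BIR3 and C-terminally biotinylated Smac peptide AVPIAQK, each diluted to 90 nM before addition, in HEPES pH 7.5 buffer with NaCl, BSA, Triton X-100. Eu-cryptate anti-His/streptavidin-XL665 detection after ≥4 h at room temperature; inhibition % from 665/615 ratio versus no-compound control.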
In general terms: In TR-FRET formats the signal depends on donor and acceptor labels being close together.

Assay [2] has as its target T2, GCN2 (Homo sapiens, UniProt Q9P2K8, S808G).
T2 construct: purchased Discover X (KINOMEscan service)
T2 sequence (Q9P2K8 590-1001 S808G limits assumed): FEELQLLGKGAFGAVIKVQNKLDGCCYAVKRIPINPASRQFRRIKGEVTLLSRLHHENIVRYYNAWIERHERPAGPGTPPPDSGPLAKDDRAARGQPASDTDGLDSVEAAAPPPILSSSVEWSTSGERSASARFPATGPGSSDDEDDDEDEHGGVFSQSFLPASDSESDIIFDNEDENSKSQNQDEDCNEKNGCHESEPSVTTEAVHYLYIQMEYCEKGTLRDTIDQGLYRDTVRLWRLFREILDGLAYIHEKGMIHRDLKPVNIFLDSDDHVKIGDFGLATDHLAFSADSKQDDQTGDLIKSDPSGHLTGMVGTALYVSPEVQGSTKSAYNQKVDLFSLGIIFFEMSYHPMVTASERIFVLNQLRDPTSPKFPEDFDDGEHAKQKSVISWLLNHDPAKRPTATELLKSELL
As to the kind of experiment: KINOMEscan active site-dependent competitive binding assay, GCN2. Conditions: test compound 1 μM; DMSO = 100% Ctrl, control compound = 0% Ctrl. On the procedure: (§1) Each of GSK3a/B and GCN2 binding inhibitory activity was evaluated using active site-dependent competitive assay KINOMEscan provided by Discover X (Goldstein, D. M. et al. High-throughput kinase profiling as a platform for drug discovery. Nat. Rev. Drug Discovery. 7, 391-397 (2008)). the “% Ctrl” when the concentration of the test compound is 1 μM is shown in the table below. The “% Ctrl” is calculated by the following formula. (test compound signal−positive control compound signal)/(negative control compound signal−positive control compound signal)×100 • Negative control compound=DMSO (100% Ctrl) • Positive control compound=control compound (0% Ctrl)

The target of assay [3] is T3, GCN2 (Homo sapiens, UniProt Q9P2K8).
T3 construct: endogenous in cells; host or cells: THP1 (ATCC)
As to the kind of experiment: In vitro degradation activity of GCN2 in THP1 cells, western blotting. The class given is cell-based. Particulars: test compound 10 μM, 24 hours, relative to DMSO control set at 100. On the procedure:
(§2) In vitro degradation activities of GSK3α/β and GCN2 of the example compounds were evaluated by the following method. THP1 cells were purchased from ATCC and cultured in RPMI-1640 supplemented with 10% FBS and 1% penicillin/streptomycin. THP1 cells were seeded at a density of 1×10^6 cells/well in 24-well plate and treated with DMSO control or Example 55 (1, 3, 10 μM), and then incubated for 24 hours. The cells were collected and lysed on ice for 30 minutes in RIPA buffer (Thermo Fisher #87787) containing a protease inhibitor cocktail (Sigma-Aldrich). The lysates were sonicated for 30 sec ON/30 sec OFF for ten cycles and centrifuged for 15 minutes at 15 krpm at 4° C. Protein concentrations were determined by the BCA assay (Thermo Fisher). Proteins were separated with Nu-PAGE (Thermo Fisher) and analyzed by western blotting (standard protocol) using antibodies of anti-GSK3α/β (Cell Signaling #5676), GCN2 (Cell Signaling #3302), and R-actin (Sigma #A2066) (FIG. 1). Bands (luminescent intensities) were quantified using LAS-4000 luminescent image analyzer (Fuji). The values of GSK3α/β and GCN2 were corrected by the internal control value of β-actin and analyzed relative to DMSO control set at 100. The remaining protein rate (%) are described as A≤25%, 25%<B≤50%, 50%<C≤75%, D>75% when the concentration of the test compound is 10 μM.
(Immunoblotting shows a protein as a band on a membrane.)

Another assay concerns GSK3α/β and GCN2. As to the kind of experiment: Ubiquitin-proteasome system dependency of degradation in THP1 cells with Epoxomicin. The class given is cell-based, human. Particulars: test compound 10 μM with or without 1 μM Epoxomicin, 8 hours, FIG. 2. On the procedure:
THP1 cells were seeded at a density of 1×10^6 cells/well in 24-well plate and treated with DMSO control or Example 55 (10 μM) with or without 1 μM of Epoxomicin and incubated for 8 hours. The cells were collected and lysed on ice for 30 minutes in RIPA buffer (Thermo Fisher #87787) containing a protease inhibitor cocktail (Sigma-Aldrich). The lysates were sonicated for 30 sec ON/30 sec OFF for ten cycles and centrifuged for 15 minutes at 15 krpm at 4° C. Protein concentrations were determined by the BCA assay (Thermo Fisher). Proteins were separated with Nu-PAGE (Thermo Fisher) and analyzed by western blotting (standard protocol) using antibodies of anti-GSK3α/β Cell Signaling #5676), GCN2 (Cell Signaling #3302), and β-actin (Sigma #A2066) (FIG. 2).

Assay [4] deals with T4, GSK3α (Homo sapiens, UniProt P49840). As to the kind of experiment: KINOMEscan active site-dependent competitive binding assay, GSK3α. Further details: purchased Discover X (KINOMEscan service). Conditions: test compound 1 μM; DMSO = 100% Ctrl, control compound = 0% Ctrl. Here is the method:
as §1

Assay [5] addresses T5, GSK3β (Homo sapiens, UniProt P49841). In words: KINOMEscan active site-dependent competitive binding assay, GSK3β. Further details: purchased Discover X (KINOMEscan service). Conditions: test compound 1 μM; DMSO = 100% Ctrl, control compound = 0% Ctrl. On the procedure:
as §1

Assay [6] has as its target T4, GSK3α. As to the kind of experiment: In vitro degradation activity of GSK3α in THP1 cells, western blotting. Further details: endogenous in cells; host or cells: THP1 (ATCC). It is filed as cell-based. Conditions: test compound 10 μM, 24 hours, relative to DMSO control set at 100. Here is the method: as §2
The target in assay [7] is T5, GSK3β. As to the kind of experiment: In vitro degradation activity of GSK3β in THP1 cells, western blotting. The class given is cell-based. On the set-up: endogenous in cells; host or cells: THP1 (ATCC). Conditions: test compound 10 μM, 24 hours, relative to DMSO control set at 100. Here is the method: as §2

T4 sequence (P49840 whole entry): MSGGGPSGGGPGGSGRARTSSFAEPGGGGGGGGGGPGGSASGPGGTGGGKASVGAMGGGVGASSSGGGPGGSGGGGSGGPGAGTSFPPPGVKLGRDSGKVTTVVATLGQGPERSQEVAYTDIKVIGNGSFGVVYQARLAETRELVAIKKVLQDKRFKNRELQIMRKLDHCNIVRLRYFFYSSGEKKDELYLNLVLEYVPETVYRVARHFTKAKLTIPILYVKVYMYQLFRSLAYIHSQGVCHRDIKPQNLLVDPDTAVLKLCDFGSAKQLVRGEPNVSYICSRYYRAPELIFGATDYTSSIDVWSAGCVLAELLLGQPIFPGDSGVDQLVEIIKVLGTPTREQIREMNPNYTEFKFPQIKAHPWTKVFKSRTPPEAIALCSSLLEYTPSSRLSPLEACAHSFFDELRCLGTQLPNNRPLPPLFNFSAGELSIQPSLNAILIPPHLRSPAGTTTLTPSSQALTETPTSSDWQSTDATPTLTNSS
T5 sequence (P49841 whole entry): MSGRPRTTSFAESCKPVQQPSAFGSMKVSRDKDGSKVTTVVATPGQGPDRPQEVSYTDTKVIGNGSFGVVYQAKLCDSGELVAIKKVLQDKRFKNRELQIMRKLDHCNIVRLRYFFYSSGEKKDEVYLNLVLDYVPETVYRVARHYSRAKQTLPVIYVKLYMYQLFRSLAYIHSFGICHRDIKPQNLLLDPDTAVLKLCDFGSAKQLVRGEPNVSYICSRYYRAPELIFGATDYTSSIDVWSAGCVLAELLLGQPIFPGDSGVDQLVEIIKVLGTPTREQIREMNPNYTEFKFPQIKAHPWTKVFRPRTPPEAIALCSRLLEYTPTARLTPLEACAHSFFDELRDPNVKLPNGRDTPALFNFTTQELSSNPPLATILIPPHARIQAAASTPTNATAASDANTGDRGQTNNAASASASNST
T1 sequence (P98170 252-356 limits assumed): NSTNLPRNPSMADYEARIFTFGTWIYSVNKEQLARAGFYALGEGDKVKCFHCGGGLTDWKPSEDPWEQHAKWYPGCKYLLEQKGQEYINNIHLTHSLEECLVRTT
T3 sequence (Q9P2K8 whole entry): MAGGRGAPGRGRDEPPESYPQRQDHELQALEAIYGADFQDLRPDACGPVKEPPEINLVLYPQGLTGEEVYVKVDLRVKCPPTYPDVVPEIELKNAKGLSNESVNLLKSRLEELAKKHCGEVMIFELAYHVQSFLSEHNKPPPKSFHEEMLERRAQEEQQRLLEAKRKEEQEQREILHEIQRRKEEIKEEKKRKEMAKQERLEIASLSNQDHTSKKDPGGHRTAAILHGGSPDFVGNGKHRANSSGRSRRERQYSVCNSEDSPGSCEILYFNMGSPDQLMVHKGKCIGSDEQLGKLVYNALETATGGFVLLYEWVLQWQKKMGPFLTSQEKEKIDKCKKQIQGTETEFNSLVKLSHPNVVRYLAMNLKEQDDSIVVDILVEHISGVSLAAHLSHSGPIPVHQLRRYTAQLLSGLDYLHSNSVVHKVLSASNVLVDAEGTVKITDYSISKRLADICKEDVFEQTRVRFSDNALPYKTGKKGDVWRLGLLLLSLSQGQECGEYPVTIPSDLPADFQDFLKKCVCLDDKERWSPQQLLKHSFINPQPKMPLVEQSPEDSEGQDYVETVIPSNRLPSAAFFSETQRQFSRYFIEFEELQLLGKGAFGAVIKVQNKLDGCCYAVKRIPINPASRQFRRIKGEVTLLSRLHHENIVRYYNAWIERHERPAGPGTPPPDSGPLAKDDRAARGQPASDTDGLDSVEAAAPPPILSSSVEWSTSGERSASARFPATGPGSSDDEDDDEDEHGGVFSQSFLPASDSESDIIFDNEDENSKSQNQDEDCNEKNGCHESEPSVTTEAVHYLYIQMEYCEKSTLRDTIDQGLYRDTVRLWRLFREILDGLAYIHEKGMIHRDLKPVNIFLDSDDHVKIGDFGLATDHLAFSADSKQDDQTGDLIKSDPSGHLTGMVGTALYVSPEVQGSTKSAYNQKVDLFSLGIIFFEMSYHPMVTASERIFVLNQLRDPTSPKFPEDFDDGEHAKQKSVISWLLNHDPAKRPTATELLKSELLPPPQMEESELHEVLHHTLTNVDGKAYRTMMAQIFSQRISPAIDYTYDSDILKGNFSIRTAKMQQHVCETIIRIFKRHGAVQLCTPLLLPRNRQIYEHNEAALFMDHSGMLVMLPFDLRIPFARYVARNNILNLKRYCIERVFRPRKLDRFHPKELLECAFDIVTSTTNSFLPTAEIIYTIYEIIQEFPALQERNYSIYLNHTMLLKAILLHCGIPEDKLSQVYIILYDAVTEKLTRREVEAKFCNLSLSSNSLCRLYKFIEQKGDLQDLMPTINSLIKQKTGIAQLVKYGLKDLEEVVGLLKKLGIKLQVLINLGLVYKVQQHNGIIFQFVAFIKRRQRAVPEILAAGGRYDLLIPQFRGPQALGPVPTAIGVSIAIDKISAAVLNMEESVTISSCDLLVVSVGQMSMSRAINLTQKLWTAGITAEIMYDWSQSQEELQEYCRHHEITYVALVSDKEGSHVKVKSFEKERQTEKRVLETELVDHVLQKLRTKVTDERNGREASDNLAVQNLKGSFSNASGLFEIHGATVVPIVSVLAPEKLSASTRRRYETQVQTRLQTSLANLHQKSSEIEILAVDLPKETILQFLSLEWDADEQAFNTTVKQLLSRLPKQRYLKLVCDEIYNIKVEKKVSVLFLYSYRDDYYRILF

For the compound `CN[C@@H](C)C(=O)N[C@H](C(=O)N1CCN(C(=O)c2c(C(=O)NCCOCCOCC(=O)N3CCN(c4ccc(Nc5ncc6nnn(-c7ccc(OC)c(OC)c7)c6n5)cc4)CC3)c3ccc(OC)cc3n2C)CC1)C1CCCCC1` [Example 55, 2-(4-((S)-2-Cyclohexyl-2-((S)-2-(methylamino)propanamido)acetyl)piperazine-1-carbonyl)-N-(2-(2-(2-(4-(4-((3-(3,4-dimethoxyphenyl)-3H-[1,2,3]triazolo[4,5-d]pyrimidin-5-yl)amino)phenyl)piperazin-1-yl)-2-oxoethoxy)ethoxy)ethyl)-6-methoxy-1-methyl-1H-indole-3-carboxamide], the inhibition at 3 µM in assay [1] was over 75%. Also, the remaining binding at 1 µM at GCN2 [2] worked out at 0.35%; at GSK3α [4], 39%; at GSK3β [5], 11%. For the same compound, the “remaining protein rate (%) GCN2” value at GCN2 [3] is recorded as “A (A≤25%)”. Besides, the “degradation activity of GSK3α/β and GCN2 with proteasome inhibitor Epoxomicin” value in the assay with GSK3α/β and GCN2 is on record as “cancelled by the proteasome inhibitor Epoxomicin treatment”. Moreover, on GSK3α [6], the “remaining protein rate (%) GSK3α” value was “B (25%<B≤50%)”. Also, the “remaining protein rate (%) GSK3β” value on GSK3β [7] is recorded as “B (25%<B≤50%)”.
